The source of these data is ChEMBL document CHEMBL1697781, “Assessment of the health effects of chemicals in humans: II. Construction of an adverse effects database for QSAR modeling” (Curr Drug Discov Technol, 2004).

Holding throughout (conditions): human
Series [1] deals with Hepatotoxicity. The experiment in a line: FDA HLAED, gamma-glutamyl transferase (GGT) increase.
Series [2] concerns Hepatotoxicity. The experiment in a line: FDA HLAED, alkaline phosphatase increase.
The subject of series [3] is Hepatotoxicity. The experiment in a line: FDA HLAED, serum glutamic oxaloacetic transaminase (SGOT) increase.
Series [4] deals with Hepatotoxicity. The series can be described thus: FDA HLAED, serum glutamic pyruvic transaminase (SGPT) increase.
The test system of series [5] is Hepatotoxicity. The series can be described thus: FDA HLAED, lactate dehydrogenase (LDH) increase.
For series [6], the system named is Hepatotoxicity. The experiment in a line: FDA HLAED, liver enzyme composite activity.

SMILES strings stand for the structures. Some results are limits rather than exact numbers.
Wherever GGT Increase - Index Value is given: reference of the scale not given here.
Wherever LDH Increase - Index Value is given: reference of the scale not given here.

In the case of `CC(CCc1ccccc1)NCC(O)c1ccc(O)c(C(N)=O)c1` (configuration not stated) [LABETALOL], in the series with Hepatotoxicity [1], the “GGT Increase - Activity Score” value was “Inactive”, the “GGT Increase - Index Value” was 0 and the “GGT Increase - Number of Reports” value is less than 4. Besides, in the series on Hepatotoxicity [2], the “Alkaline Phosphatase Increase - Activity Score” value is “Inactive”, the “Alkaline Phosphatase Increase - Index Value” was 0.9 and the “Alkaline Phosphatase Increase - Number of Reports” value was “>= 4”. Also, in the series with Hepatotoxicity [3], the “SGOT Increase - Activity Score” value is “Marginally Active”, the “SGOT Increase - Index Value” was determined as 3 and the “SGOT Increase - Number of Reports” value is “>= 4”. Also, in the series with Hepatotoxicity [4], the “SGPT Increase - Activity Score” value was “Inactive”, the “SGPT Increase - Index Value” worked out at 1.1 and the “SGPT Increase - Number of Reports” value is reported as “>= 4”. In the series on Hepatotoxicity [5], the “LDH Increase - Activity Score” value is given as “Inactive”, the “LDH Increase - Index Value” is 0.4 and the “LDH Increase - Number of Reports” value is listed as less than 4. In the series on Hepatotoxicity [6], the “Composite Activity - Active” value was found to be 0, the “Composite Activity - Marginal” value is 1 and the “Composite Activity - Score” value is reported as “Inactive”.

As to `Nc1ccn([C@@H]2CS[C@H](CO)O2)c(=O)n1` [LAMIVUDINE], in the series on Hepatotoxicity [1], the “GGT Increase - Activity Score” value is recorded as “Inactive”, the “GGT Increase - Index Value” is given as 1.7 and the “GGT Increase - Number of Reports” value is on record as “>= 4”. Further, in the series with Hepatotoxicity [2], the “Alkaline Phosphatase Increase - Activity Score” value is listed as “Inactive”, the “Alkaline Phosphatase Increase - Index Value” amounted to 2.1 and the “Alkaline Phosphatase Increase - Number of Reports” value is given as “>= 4”. In the series with Hepatotoxicity [3], the “SGOT Increase - Activity Score” value is recorded as “Active”, the “SGOT Increase - Index Value” was 8.7 and the “SGOT Increase - Number of Reports” value is “>= 4”. In the series with Hepatotoxicity [4], the “SGPT Increase - Activity Score” value is recorded as “Active”, the “SGPT Increase - Index Value” is 9 and the “SGPT Increase - Number of Reports” value is given as “>= 4”. Also, in the series with Hepatotoxicity [5], the “LDH Increase - Activity Score” value is “Inactive”, the “LDH Increase - Index Value” turned out to be 2.1 and the “LDH Increase - Number of Reports” value is “>= 4”. In the series on Hepatotoxicity [6], the “Composite Activity - Active” value worked out at 2, the “Composite Activity - Marginal” value was 0 and the “Composite Activity - Score” value is “Active”.

As to `Nc1nnc(-c2cccc(Cl)c2Cl)c(N)n1` [LAMOTRIGINE], in the series with Hepatotoxicity [1], the “GGT Increase - Activity Score” value was “Inactive”, the “GGT Increase - Index Value” was 2 and the “GGT Increase - Number of Reports” value was less than 4. Besides, in the series on Hepatotoxicity [2], the “Alkaline Phosphatase Increase - Activity Score” value was “Inactive”, the “Alkaline Phosphatase Increase - Index Value” stood at 0.5 and the “Alkaline Phosphatase Increase - Number of Reports” value is less than 4. In the series on Hepatotoxicity [3], the “SGOT Increase - Activity Score” value was “Active”, the “SGOT Increase - Index Value” is 4 and the “SGOT Increase - Number of Reports” value is given as “>= 4”. In the series with Hepatotoxicity [4], the “SGPT Increase - Activity Score” value is on record as “Active”, the “SGPT Increase - Index Value” amounted to 4 and the “SGPT Increase - Number of Reports” value is recorded as “>= 4”. In the series on Hepatotoxicity [5], the “LDH Increase - Activity Score” value is given as “Marginally Active”, the “LDH Increase - Index Value” is recorded as 3 and the “LDH Increase - Number of Reports” value is reported as “>= 4”. For the same molecule, in the series on Hepatotoxicity [6], the “Composite Activity - Active” value turned out to be 2, the “Composite Activity - Marginal” value was 1 and the “Composite Activity - Score” value is given as “Active”.

On to `Cc1c(OCC(F)(F)F)ccnc1C[S+]([O-])c1nc2ccccc2[nH]1` (configuration not stated) [LANSOPRAZOLE], for which, in the series with Hepatotoxicity [1], the “GGT Increase - Activity Score” value was “Inactive”, the “GGT Increase - Index Value” is 1.1 and the “GGT Increase - Number of Reports” value is “>= 4”. Also, in the series with Hepatotoxicity [2], the “Alkaline Phosphatase Increase - Activity Score” value is reported as “Inactive”, the “Alkaline Phosphatase Increase - Index Value” was 0.5 and the “Alkaline Phosphatase Increase - Number of Reports” value is reported as less than 4. In the series with Hepatotoxicity [3], the “SGOT Increase - Activity Score” value was “Inactive”, the “SGOT Increase - Index Value” came to 0.9 and the “SGOT Increase - Number of Reports” value is reported as “>= 4”. Moreover, in the series with Hepatotoxicity [4], the “SGPT Increase - Activity Score” value was “Inactive”, the “SGPT Increase - Index Value” was found to be 1.2 and the “SGPT Increase - Number of Reports” value was “>= 4”. Besides, in the series on Hepatotoxicity [5], the “LDH Increase - Activity Score” value was “Inactive”, the “LDH Increase - Index Value” is recorded as 0.5 and the “LDH Increase - Number of Reports” value is listed as less than 4. Besides, in the series with Hepatotoxicity [6], the “Composite Activity - Active” value is on record as 0, the “Composite Activity - Marginal” value is 0 and the “Composite Activity - Score” value is listed as “Inactive”.

On to `CC(C)OC(=O)CCC/C=C\C[C@@H]1[C@@H](CC[C@@H](O)CCc2ccccc2)[C@H](O)C[C@@H]1O` [LATANOPROST], for which, in the series on Hepatotoxicity [1], the “GGT Increase - Activity Score” value is reported as “Inactive”, the “GGT Increase - Index Value” was determined as 0 and the “GGT Increase - Number of Reports” value is on record as less than 4. In the series with Hepatotoxicity [2], the “Alkaline Phosphatase Increase - Activity Score” value was “Inactive”, the “Alkaline Phosphatase Increase - Index Value” turned out to be 0.2 and the “Alkaline Phosphatase Increase - Number of Reports” value is recorded as less than 4. Besides, in the series on Hepatotoxicity [3], the “SGOT Increase - Activity Score” value is listed as “Inactive”, the “SGOT Increase - Index Value” worked out at 0.2 and the “SGOT Increase - Number of Reports” value is recorded as less than 4. In the series with Hepatotoxicity [4], the “SGPT Increase - Activity Score” value is listed as “Inactive”, the “SGPT Increase - Index Value” is listed as 0 and the “SGPT Increase - Number of Reports” value is less than 4. For the same molecule, in the series with Hepatotoxicity [5], the “LDH Increase - Activity Score” value is on record as “Inactive”, the “LDH Increase - Index Value” was 0 and the “LDH Increase - Number of Reports” value is less than 4. In addition, in the series with Hepatotoxicity [6], the “Composite Activity - Active” value is recorded as 0, the “Composite Activity - Marginal” value was found to be 0 and the “Composite Activity - Score” value is given as “Inactive”.

Consider `c1ccc([C@H]2CN3CCSC3=N2)cc1` [LEVAMISOLE], for which, in the series on Hepatotoxicity [1], the “GGT Increase - Activity Score” value is on record as “Inactive”, the “GGT Increase - Index Value” was found to be 5.9 and the “GGT Increase - Number of Reports” value was less than 4. Moreover, in the series on Hepatotoxicity [2], the “Alkaline Phosphatase Increase - Activity Score” value is given as “Active”, the “Alkaline Phosphatase Increase - Index Value” is 38.3 and the “Alkaline Phosphatase Increase - Number of Reports” value is given as “>= 4”. In the series on Hepatotoxicity [3], the “SGOT Increase - Activity Score” value is recorded as “Active”, the “SGOT Increase - Index Value” worked out at 26.5 and the “SGOT Increase - Number of Reports” value is on record as “>= 4”. Also, in the series on Hepatotoxicity [4], the “SGPT Increase - Activity Score” value was “Inactive”, the “SGPT Increase - Index Value” worked out at 8.8 and the “SGPT Increase - Number of Reports” value was less than 4. Besides, in the series on Hepatotoxicity [5], the “LDH Increase - Activity Score” value was “Active”, the “LDH Increase - Index Value” stood at 29.4 and the “LDH Increase - Number of Reports” value is reported as “>= 4”. Further, in the series with Hepatotoxicity [6] (Liver), the “Composite Activity - Active” value came to 3, the “Composite Activity - Marginal” value is 0 and the “Composite Activity - Score” value is reported as “Active”.

`CC(C)(C)NC[C@H](O)COc1cccc2c1CCCC2=O` [LEVOBUNOLOL]: in the series on Hepatotoxicity [1], the “GGT Increase - Activity Score” value is recorded as “Inactive”, the “GGT Increase - Index Value” is 0 and the “GGT Increase - Number of Reports” value is on record as less than 4. Moreover, in the series on Hepatotoxicity [2], the “Alkaline Phosphatase Increase - Activity Score” value is reported as “Inactive”, the “Alkaline Phosphatase Increase - Index Value” turned out to be 0 and the “Alkaline Phosphatase Increase - Number of Reports” value was less than 4. Besides, in the series on Hepatotoxicity [3], the “SGOT Increase - Activity Score” value is reported as “Inactive”, the “SGOT Increase - Index Value” is on record as 0 and the “SGOT Increase - Number of Reports” value is given as less than 4. Also, in the series on Hepatotoxicity [4], the “SGPT Increase - Activity Score” value is “Inactive”, the “SGPT Increase - Index Value” is recorded as 0 and the “SGPT Increase - Number of Reports” value is given as less than 4. Moreover, in the series on Hepatotoxicity [5], the “LDH Increase - Activity Score” value is reported as “Inactive”, the “LDH Increase - Index Value” was 0 and the “LDH Increase - Number of Reports” value is less than 4. For the same molecule, in the series on Hepatotoxicity [6], the “Composite Activity - Active” value is on record as 0, the “Composite Activity - Marginal” value came out at 0 and the “Composite Activity - Score” value is “Inactive”.

In the case of `C[C@@H]1CN([C@H]2CC[C@](C#N)(c3ccc(F)cc3)CC2)CC[C@]1(C(=O)O)c1ccccc1` [LEVOCABASTINE], in the series on Hepatotoxicity [1], the “GGT Increase - Activity Score” value is listed as “Inactive”, the “GGT Increase - Index Value” was determined as 0 and the “GGT Increase - Number of Reports” value was less than 4. In addition, in the series with Hepatotoxicity [2], the “Alkaline Phosphatase Increase - Activity Score” value is listed as “Inactive”, the “Alkaline Phosphatase Increase - Index Value” is on record as 0 and the “Alkaline Phosphatase Increase - Number of Reports” value was less than 4. Also, in the series with Hepatotoxicity [3], the “SGOT Increase - Activity Score” value is reported as “Inactive”, the “SGOT Increase - Index Value” turned out to be 0 and the “SGOT Increase - Number of Reports” value is reported as less than 4. Further, in the series on Hepatotoxicity [4], the “SGPT Increase - Activity Score” value is “Inactive”, the “SGPT Increase - Index Value” worked out at 0 and the “SGPT Increase - Number of Reports” value was less than 4. Further, in the series on Hepatotoxicity [5], the “LDH Increase - Activity Score” value is given as “Inactive”, the “LDH Increase - Index Value” amounted to 0 and the “LDH Increase - Number of Reports” value was less than 4. Moreover, in the series with Hepatotoxicity [6], the “Composite Activity - Active” value is recorded as 0, the “Composite Activity - Marginal” value was determined as 0 and the “Composite Activity - Score” value is reported as “Inactive”.

With `C[N+](C)(C)C[C@H](O)CC(=O)[O-]` [LEVOCARNITINE], in the series with Hepatotoxicity [1], the “GGT Increase - Activity Score” value is on record as “Inactive”, the “GGT Increase - Index Value” amounted to 0 and the “GGT Increase - Number of Reports” value was less than 4. Further, in the series on Hepatotoxicity [2], the “Alkaline Phosphatase Increase - Activity Score” value is “Inactive”, the “Alkaline Phosphatase Increase - Index Value” is 0 and the “Alkaline Phosphatase Increase - Number of Reports” value is reported as less than 4. Further, in the series with Hepatotoxicity [3], the “SGOT Increase - Activity Score” value is given as “Inactive”, the “SGOT Increase - Index Value” is given as 0 and the “SGOT Increase - Number of Reports” value was less than 4. Besides, in the series with Hepatotoxicity [4], the “SGPT Increase - Activity Score” value was “Inactive”, the “SGPT Increase - Index Value” came out at 0 and the “SGPT Increase - Number of Reports” value is listed as less than 4. In the series with Hepatotoxicity [5], the “LDH Increase - Activity Score” value was “Inactive”, the “LDH Increase - Index Value” amounted to 0 and the “LDH Increase - Number of Reports” value was less than 4. Besides, in the series with Hepatotoxicity [6], the “Composite Activity - Active” value is reported as 0, the “Composite Activity - Marginal” value was found to be 0 and the “Composite Activity - Score” value is given as “Inactive”.
